# Patent US20220175761A1, “BI-LIGAND DRUG CONJUGATE AND USE THEREOF” (COHERENT BIOPHARMA (SUZHOU), LIMITED, priority 2019, published 2022)
# Numbered stars: 1 amine (or outer) side, 2 acyl side, 3 side chain; on linkers, the order of the positions; unused ones are H or OH. Square brackets hold non-standard residues; d marks the D form. Peptide text beside a SMILES is read from it. * marks the point of attachment. ξ: configuration not given here. X5 = CCc1c2c(nc3ccc(O)cc13)-c1cc3c(c(=O)n1C2)COC(=O)[C@@]3(CC)OC(=O)OCc1ccc(NC(=O)COCC(=O)*)cc1; X4 = O=C([C@H](Cc1cnnn1CCOCCOCCOCCOCCOCCN[*:3])N[*:1])[*:2]; Pteroyl = Nc1nc2ncc(CNc3ccc(C(=O)*)cc3)nc2c(=O)[nH]1; γGlu = O=C(O)[C@H](CCC(=O)[*:2])N[*:1]; ξV = CC(C)C(N)C(=O)O
# System: KB, LNCaP, T-47D, RT4 and NCI-H460 tumor cell lines
# Assay: Inhibition of tumor cell expansion, CCK8 (CB-50S)
# Format: cell-based, human
# Procedure: Cell lines: KB human oral epidermoid carcinoma cells, NCI-H460 human lung cancer cells, RT4 human bladder cancer cells, T-47D human breast cancer cells and LNCaP human prostate cancer cells
# The cells were prepared in advance, digested with trypsin, collected and counted; with a complete cell culture medium, KB cells were diluted to 3.5×10^4 cells/ml, LNCaP cells were diluted to 8.0×10^4 cells/ml, T-47D cells were diluted to 1.2×10^4 cells/ml, NCI-H460 cells were diluted to 2.5×10^4 cells/ml, and RT4 cells were diluted to 1.2×10^5 cells/ml; to each well of 96-well plates, 100 μl of the diluted cell solution was added; and negative control and blank control wells were set on each plate. The 96-well plates added with the cells were placed in an incubator at 37° C., 5% CO2 for culturing overnight.
# The samples were diluted with a culture medium to desired concentrations (see Table 16). […]
# To each well, 15 μl (10% of the liquid volume in a well) of a color developing solution from CCK-8 was added; the plates were incubated at 37° C. for an appropriate time (try to keep the OD value in the range of 1.0-2.0); the covers of the 96-well plates were removed, and the plates were read at 450 nm on a microplate reader (Molecular Devices Spectra MAX Plus). […]
structure (smiles),measurement,setting,value
CCc1c2c(nc3ccc(O)cc13)-c1cc3c(c(=O)n1C2)COC(=O)[C@@]3(CC)OC(=O)OCc1ccc(NC(=O)COCC(=O)NCCOCCOCCOCCOCCOCCn2nncc2C[C@H](NC(=O)CC[C@H](NC(=O)c2ccc(NCc3cnc4[nH]c(N)nc(=O)c4n3)cc2)C(=O)O)C(=O)N[C@@H](CCCCN)C(=O)N[C@@H](CCC(=O)O)C(=O)N[C@@H](Cc2ccccc2)C(=O)N[C@@H](CC(C)C)C(=O)N[C@@H](Cc2cnc[nH]2)C(=O)N2CCC[C@H]2C(=O)N[C@@H](CO)C(=O)N[C@@H](CCCCN)C(=O)NC(C(=O)N[C@@H](CC(=O)O)C(=O)N[C@@H](CC(C)C)C(=O)N2CCC[C@H]2C(=O)N[C@@H](CCCNC(=N)N)C(=O)O)C(C)C)cc1 (some centres unmarked) [CB-50S] ({Pteroyl-γGlu}-[X4](X5)KEFLHPSK[ξV]DLPR-OH),inhibitory effect on growth and expansion of tumor cell lines,"72 hours, CCK-8",has an inhibitory effect
same,IC50 compared between cell lines,"KB, LNcap, T-47D and RT4 versus NCI-H460",significantly lower
